Patent US20230414555A1, “USE OF DIHYDROMYRICETIN AS EPIGENETIC ACTIVE INGREDIENT FOR COSMETIC OR DERMATOLOGICAL SKIN CARE” (BEIERSDORF AG, priority 2020, published 2023)

Key:
[1] = test system: expression of 45 genes in the epidermis; experiment: in vivo study: gene expression in epidermis (TaqMan) after eight weeks of cream application; conditions: verum cream on inner forearm for eight weeks, 19 test subjects (50-65 years), 45 genes analyzed, ΔΔCt method, FIG. 3
Description: To this end, 19 test subjects (50-65 years) applied cream comprising a vehicle and a verum including dihydromyricetin to the inner forearm over a period of eight weeks. Suction blisters were then produced and the epidermis was harvested. The RNA was isolated from the epidermis samples (RNeasy Fibrous Tissue Kit, Qiagen, Hilden) and the expression of 45 genes (+3 endogenous control genes) was analyzed using the TaqMan system (7900HT Fast Real-Time PCR System, Applied Biosystems). […] The changes in expression were calculated using the ΔΔCt method.

[2] = test system: DNA methylation of 850 000 CpGs in the epidermis; experiment: in vivo study: epidermal DNA methylation by EPIC technology after cream application and UV irradiation; conditions: verum cream on lower back for two weeks, UV 0.8 MED on three consecutive days, compared to unirradiated control, n=32, FIG. 2
Description: To this end, test subjects (n=32) applied cream comprising a vehicle and a verum including dihydromyricetin to the lower back for two weeks. After the two-week treatment period, the test subjects were irradiated with UV (0.8 MED) on three consecutive days in order to imitate an age-relevant environmental influence. 24 hours after the final UV irradiation, suction blisters were produced and the epidermis was harvested. The DNA was isolated from the epidermis and the state of the DNA methylation of 850 000 CpGs was determined by means of EPIC technology from Illumina.

[3] = molecular target: T1, recombinant DNMT1 enzyme (Homo sapiens, UniProt P26358); experiment: cell-free DNMT Activity/Inhibition Assay (Active Motif); type: biochemical; conditions: manufacturer's standard protocol, FIG. 1
T1 construct: purchased Active Motif, Belgium
From the text: Here, the assay manufacturer's standard protocol was used.

T1 sequence (P26358 whole entry): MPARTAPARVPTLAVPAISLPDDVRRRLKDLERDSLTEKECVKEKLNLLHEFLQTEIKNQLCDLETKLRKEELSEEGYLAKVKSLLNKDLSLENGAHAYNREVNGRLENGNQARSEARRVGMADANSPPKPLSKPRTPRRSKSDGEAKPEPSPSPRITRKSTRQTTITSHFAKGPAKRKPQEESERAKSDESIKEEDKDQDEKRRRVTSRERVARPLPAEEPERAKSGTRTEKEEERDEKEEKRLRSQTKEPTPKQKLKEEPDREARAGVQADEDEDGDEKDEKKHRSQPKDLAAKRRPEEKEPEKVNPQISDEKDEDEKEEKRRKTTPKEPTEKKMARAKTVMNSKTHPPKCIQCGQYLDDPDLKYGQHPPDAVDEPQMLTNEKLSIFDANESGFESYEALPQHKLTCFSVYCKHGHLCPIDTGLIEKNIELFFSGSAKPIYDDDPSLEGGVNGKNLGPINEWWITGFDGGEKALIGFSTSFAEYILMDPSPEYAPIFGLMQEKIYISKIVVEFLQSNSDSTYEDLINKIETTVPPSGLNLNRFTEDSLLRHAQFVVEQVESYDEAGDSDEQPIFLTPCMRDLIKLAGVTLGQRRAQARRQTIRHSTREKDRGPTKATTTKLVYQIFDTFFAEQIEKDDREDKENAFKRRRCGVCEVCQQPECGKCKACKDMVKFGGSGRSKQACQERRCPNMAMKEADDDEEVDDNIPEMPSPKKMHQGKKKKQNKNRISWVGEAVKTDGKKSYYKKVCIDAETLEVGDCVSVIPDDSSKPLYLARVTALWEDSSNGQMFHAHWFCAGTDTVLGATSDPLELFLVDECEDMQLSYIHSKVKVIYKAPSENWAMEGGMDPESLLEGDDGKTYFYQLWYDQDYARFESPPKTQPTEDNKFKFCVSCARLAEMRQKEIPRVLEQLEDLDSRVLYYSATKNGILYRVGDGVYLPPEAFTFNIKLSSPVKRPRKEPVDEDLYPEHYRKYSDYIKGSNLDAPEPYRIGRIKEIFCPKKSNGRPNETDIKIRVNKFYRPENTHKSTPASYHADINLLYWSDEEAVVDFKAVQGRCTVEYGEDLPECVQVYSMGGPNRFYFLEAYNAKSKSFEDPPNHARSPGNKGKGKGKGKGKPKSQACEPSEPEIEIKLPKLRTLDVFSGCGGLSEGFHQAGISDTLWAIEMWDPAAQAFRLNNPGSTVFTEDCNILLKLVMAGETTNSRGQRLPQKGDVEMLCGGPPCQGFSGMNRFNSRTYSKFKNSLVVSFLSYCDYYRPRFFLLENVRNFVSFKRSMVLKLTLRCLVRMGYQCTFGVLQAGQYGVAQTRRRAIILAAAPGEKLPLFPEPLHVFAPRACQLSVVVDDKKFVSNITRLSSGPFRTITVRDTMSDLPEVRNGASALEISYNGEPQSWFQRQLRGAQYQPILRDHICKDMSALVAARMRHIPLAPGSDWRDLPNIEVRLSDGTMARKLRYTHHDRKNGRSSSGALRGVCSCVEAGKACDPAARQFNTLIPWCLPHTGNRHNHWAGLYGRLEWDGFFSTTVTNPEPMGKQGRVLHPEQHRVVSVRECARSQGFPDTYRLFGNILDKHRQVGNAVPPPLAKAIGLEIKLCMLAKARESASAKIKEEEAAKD

SMILES: O=C1c2c(O)cc(O)cc2O[C@H](c2cc(O)c(O)c(O)c2)[C@H]1O [dihydromyricetin, (2R,3R)-3,5,7-trihydroxy-2-(3,4,5-trihydroxyphenyl)chroman-4-one]
- genes with significant increase in expression in comparison to vehicle-treated control samples [1]: 16 genes
- methylation changes at CpGs at which the vehicle-treated area did not show any significant methylation changes [2]: 16 389 CpGs
- inhibition of the recombinant DNMT1 enzyme [3]: concentration-dependent inhibition
